Assays:
Format in all cases: cell-based
line B16 melanocytes = test: cells; conditions: for amount of melanin, % control: vs Control DMSO
Experimental: The assay methodology for the test lasted for five days in which, initially, line B16 melanocytes were plated on 12 well-conditioned containers, at a rate of 75,000 cells/plate.
On the three following days, 10mg (11 μl to linoleic acid) of component in the mixture were diluted in 100 μl of DMSO (dimethyl-sulfoxide) and, then, 9.9 ml of DMEM (culture medium) serum free were added so as to finally obtain 1 mg/ml of stock solution.
Sequentially, these solutions were incubated at 37° C. to assist solubilization of the samples. 10% bovine fetal serum (BFS) were added to the final dilution.
The actives are: gallic acid and linoleic acid.
On day five of the test the cells were divided into two steps of characterization: • Assessment of melanin in which the cells were first “washed” with PBS and then the cellular layer was dissolved into 500 μl of 3N NaOH and the suspension homogenized by pipetting. Two 200 μl portions of suspension were plated for optical reading at 400 nm.

[1] = test system: culture medium corresponding to the epidermis; test: Melanin extracted from epidermis culture after 6 days of treatment; conditions: 6 days treatment, kojic acid 250 μM, A 25 μg/ml, B 75 μg/ml, A + B 25 + 75 μg/ml; for melanin extracted from epidermis, Mean (%): % of control; for Reduction (%) of melanin extracted from epidermis: vs control
Experimental: In another example samples containing an extract of Brazilian […] extract (A), linoleic acid (B) and a mixture of the active ingredients linoleic acid and gallic acid (A+B), respectively, were compared to a control and to kojic acid as far as the reduction of the amount of melanin is concerned. Each sample was applied to a culture medium corresponding to the epidermis and the concentrations of melanin were measured after 6 days of treatment.

3T3 cells [2] = test: Cytotoxicity assay, Neutral Red, 24 hours incubation
3T3 cells [3] = test: Phototoxicity test, Neutral Red capture with and without UVA radiation; conditions: with and without non-cytotoxic dose of UVA
Experimental: Cytotoxicity assay allows determining the cytotoxic concentration of an active, when 3T3 cells are incubated therewith for 24 hours. Toxicity is determined as a function of cell viability, monitored by incubation of 3T3 cells with Neutral Red, and essential dye incorporated by living cells 24 hours 24 hours after contacting the active. Such assessment uses methodologies established by the National Institute of Health (NIH), USA, acknowledged internationally (Guidance NIH, 2001). The phototoxicity test is based on a comparison of the toxicity of an active in the presence and absence of a non-cytotoxic dose of UVA radiation. Phototoxicity is measured by Neutral Red capture by those cells surviving incubation with the active, according to a protocol already established and standardized by COLIPA and OECD (ZEBET/ECVAM/COLIPA, 1998; OECD, 2004). Phototoxicity/photoirritation is defined as the toxic response caused after a first exposure of the skin to certain products/actives and the subsequent exposure to sun light or induced by an irradiation of the skin after systemic administration of an active/product.

Structure (SMILES) | melanin synthesis, % control (line B16 melanocytes; comparison with pharmaceutical and market actives at the same concentration, printed 0.01 mg/ml, α-MSH, FIG. 4) [% control] | melanin extracted from epidermis, Mean (%) [1] [%] | melanin extracted from epidermis, Mean [1] [µg/mL] | Reduction (%) of melanin extracted from epidermis [1] [%] | Reduction (%) of melanin extracted from epidermis ([1]; listed as kojic acid) | Cytotoxicity (3T3 cells [2]) | Reduction (%) of melanin extracted from epidermis ([1]; listed as B) [%] | Reduction (%) of melanin extracted from epidermis ([1]; listed as sample B) [%] | inhibition at 25 µg/mL (line B16 melanocytes; Melanocyte, active alone at 0.025 mg/ml (its concentration in the mixture), read-out: inhibition of melanin by active alone) [%] | inhibition at 50 µg/mL (line B16 melanocytes; Melanocyte, active alone at 0.05 mg/ml (its concentration in the mixture), read-out: inhibition of melanin by active alone) [%] | inhibition at 75 µg/mL (line B16 melanocytes; Melanocyte, active alone at 0.075 mg/ml (its concentration in the mixture), read-out: inhibition of melanin by active alone) [%] | amount of melanin, % control (line B16 melanocytes; active alone at 0.025 mg/ml, α-MSH) [% control] | amount of melanin, % control (line B16 melanocytes; active alone at 0.05 mg/ml, α-MSH) [% control] | amount of melanin, % control (line B16 melanocytes; active alone at 0.075 mg/ml, α-MSH) [% control] | Phototoxicity (3T3 cells [3])
OC[C@H]1O[C@@H](Oc2ccc(O)cc2)[C@H](O)[C@@H](O)[C@@H]1O [Arbutin, reference compound] | 82.5 |  |  |  |  |  |  |  |  |  |  |  |  |  | 
O=c1cc(CO)occ1O [Kojic acid, reference compound] |  | 78.98 | 20.95 | 21.02 | about 21.02% |  |  |  |  |  |  |  |  |  | 
CCCCC/C=C\C/C=C\CCCCCCCC(=O)O [linoleic acid] |  | 80.67 | 21.4 |  |  | Not cytotoxic | 19.33 | 19.3 | 8.1 | 15.9 | 19 | 91.9 | 84.1 | 81.0 | Not phototoxic

Reference: patent publication US8652536B2, “Skin clarifying complex, use of said complex, cosmestic or pharmaceutical composition comprising said complex and method for application thereof” (Natura Cosmeticos S.A., priority 2009, dated 2014)
